Results: patent publication US8987246B2, “Methods for treatment of autism spectrum disorder” (The Johns Hopkins University, priority 2012, dated 2015)

What was measured:
individuals with SLOS = settings: cited from earlier work
[1] = system: subjects with Smith-Lemli-Opitz Syndrome; assay: Retrospective analysis of rate of change in current state ADI scores before and after cholesterol supplementation; format: in vivo, human; settings: for Cholesterol effect (regression coefficient) on average change in ADI Nonverbal score per year / Cholesterol effect (regression coefficient) on average change in ADI Repetitive score per year / Cholesterol effect (regression coefficient) on average change in ADI Social score per year / Cholesterol effect (regression coefficient) on average change in ADI Verbal score per year: negative = improvement
Description: Cholesterol Supplementation Improved Behavioral Symptoms and May Improve ASD Features in SLOS. The Autism Diagnostic Interview was conducted with 6 SLOS individuals, and data was obtained for 3 “current state” time-points: age 4-5, just before starting cholesterol supplementation, and present while on cholesterol. The change in the score of three ADI algorithm domains—Social, Communication, and Restricted, Repetitive, and Stereotyped Behavior—was estimated. Because the time between visits varied from subject to subject, a model was developed to control for age and time lapse between tests. A detailed description of the model and outcomes is included in Example 1. In summary, on the Social domain, the individuals on cholesterol supplementation improved by an average of 7.07 points more than children not on supplementation (p value 0.008). The ADI Communication domain has a non-verbal score that is completed for all individuals and a verbal score that is completed in those individuals who have phrase speech. The value for the non-verbal score is within the verbal total score. In the non-verbal children, the language domain score improved 2.51, p value 0.04. […] In the Repetitive domain, the children worsened an average of 1.54 points (p value<0.001) (Example 1).
The variables listed in the analysis of the primary outcomes are below. i=1, . . . , 6 children, j=2, 3 visits • socialchij=average change in social measure per year for child i between age at visit j and age at visit j−1. (More specifically, socialchij is social score at visit j minus social score at visit j−1, divided by the number of years between visits j and j−1.) • verbalchij=average change in verbal measure per year for child i between age at visit j and age at visit j−1. • nonverbalchij=average change in nonverbalchij measure per year for child i between age at visit j and age at visit j−1. • repetchij=average change in repetitive measure per year for child i between age at visit j and age at visit j−1.
ageij=age of child i at visit j at which measure was performed
agedifij=number of years between visit j and visit j−1
agecholij=age at which cholesterol supplementation began for child i
cholij=1 if cholesterol supplementation has occurred at prior to visit j for child i.
Note that the large improvements are consistent with large negative values. In other words, if a child has a large improvement in social score between visits j−1 and j, this will be reflected as a large negative value for socialchij.
So, the idea is to model the average change in scores before and after supplementation, adjusting for age, the number of years between visits, and the age at which supplementation occurred. To do this, our linear model for “social” is socialchij=β0i+[…]+β2agedifij+β3agecholij+β4cholij+eij
We use a linear regression model that allows for correlation between observations from the same individual. Using this model, we estimate the […] parameters in the model, which measure the direction and magnitude of the association between social score change and each of the covariates (i.e., age, age difference, age at cholesterol, and cholesterol). The same model was fit for each of the four outcomes. The table below gives the estimated coefficients for each of the 4 primary outcome variables.

[2] = 6 SLOS children, model with age, age difference, age at cholesterol, cholesterol
[3] = model leaving out age at cholesterol
[4] = model leaving out age difference from last visit

Structure (SMILES): CC(C)CCC[C@@H](C)[C@H]1CC[C@H]2[C@@H]3CC=C4C[C@@H](O)CC[C@]4(C)[C@H]3CC[C@]12C [Cholesterol, cholesterol]
- Developmental status over time with cholesterol supplementation (individuals with SLOS; SLOS, one group): did not improve
- Growth, speech articulation and neurodevelopmental status with cholesterol supplementation (individuals with SLOS; SLOS, some reports): improves
- Irritability, sleep disturbance and obsessive compulsive behavior with cholesterol supplementation (individuals with SLOS; individuals with SLOS): improve with cholesterol supplementation
- Cholesterol effect (regression coefficient) on average change in ADI Nonverbal score per year [1, 2]: −2.51
- Cholesterol effect (regression coefficient) on average change in ADI Repetitive score per year [1, 2]: 1.54
- Cholesterol effect (regression coefficient) on average change in ADI Social score per year [1, 2]: −7.07
- Cholesterol effect (regression coefficient) on average change in ADI Verbal score per year [1, 2]: −6.97
- ADI Repetitive domain: average worsening ([1]; SLOS children on cholesterol supplementation, p value<0.001): 1.54 points
- ADI Social domain: average improvement more than children not on supplementation ([1]; SLOS individuals on cholesterol supplementation, p value 0.008): 7.07 points
- Association of cholesterol supplementation with social, verbal and non-verbal scores (correlation matrix, FIG. 1) ([1]; children who have already begun supplementation, not accounting for age or other factors): scores tend to be lower on average
- Social and communication abilities with cholesterol supplementation ([1]; in SLOS): improvement was found
- Cholesterol effect (regression coefficient) on average change in ADI Nonverbal score per year [1, 3]: −2.56
- Cholesterol effect (regression coefficient) on average change in ADI Repetitive score per year [1, 3]: 1.23
- Cholesterol effect (regression coefficient) on average change in ADI Social score per year [1, 3]: −5.14
- Cholesterol effect (regression coefficient) on average change in ADI Verbal score per year [1, 3]: −6.77
- Cholesterol effect (regression coefficient) on average change in ADI Nonverbal score per year [1, 4]: −2.05
- Cholesterol effect (regression coefficient) on average change in ADI Repetitive score per year [1, 4]: 1.45
- Cholesterol effect (regression coefficient) on average change in ADI Social score per year [1, 4]: −6.97
- Cholesterol effect (regression coefficient) on average change in ADI Verbal score per year [1, 4]: −4.14
- ADI language domain (non-verbal) score improvement ([1]; non-verbal SLOS children on cholesterol supplementation, p value 0.04): 2.51
- ADI verbal score average change (given as increase) ([1]; verbal SLOS children on cholesterol supplementation, p value<0.001): 6.97 points
